Measured values published in ChEMBL document CHEMBL1142738, “N-substituted piperidinyl alkyl imidazoles: discovery of methimepip as a potent and selective histamine H3 receptor agonist” (J Med Chem, 2005).

Columns and labels:
Histamine H3 receptor [1] = target: T1, Histamine H3 receptor (Homo sapiens, UniProt Q9Y5N1); assay: Inhibition of cAMP-stimulated beta-galactosidase transcription in SK-N-MC cells expressing human H3 receptor; format: functional, cell-based
Histamine H3 receptor [2] = target: T1, Histamine H3 receptor; assay: Displacement of [3H]N-R-methylhistamine binding to SK-N-MC cell membranes expressing human H3 receptor
Histamine H1 receptor = Histamine H1 receptor (Homo sapiens, UniProt P35367); assay: Displacement of [3H]mepyramine binding to COS-7 cell membranes expressing human histamine H1 receptor
Histamine H2 receptor = Histamine H2 receptor (Homo sapiens, UniProt P25021); assay: Displacement of [125I]aminopotentidine binding to CHO cell membranes expressing human histamine H2 receptor
Histamine H4 receptor = Histamine H4 receptor (Homo sapiens, UniProt Q9H3N8); assay: Displacement of [3H]histamine binding to SK-N-MC cell membranes expressing human histamine H4 receptor
[3] = system: Histamine H3 receptor (Cavia porcellus); assay: Effect on guinea pig ileal muscle contraction evoked by electrical field stimulation (EFS)

T1 sequence (Q9Y5N1 whole entry): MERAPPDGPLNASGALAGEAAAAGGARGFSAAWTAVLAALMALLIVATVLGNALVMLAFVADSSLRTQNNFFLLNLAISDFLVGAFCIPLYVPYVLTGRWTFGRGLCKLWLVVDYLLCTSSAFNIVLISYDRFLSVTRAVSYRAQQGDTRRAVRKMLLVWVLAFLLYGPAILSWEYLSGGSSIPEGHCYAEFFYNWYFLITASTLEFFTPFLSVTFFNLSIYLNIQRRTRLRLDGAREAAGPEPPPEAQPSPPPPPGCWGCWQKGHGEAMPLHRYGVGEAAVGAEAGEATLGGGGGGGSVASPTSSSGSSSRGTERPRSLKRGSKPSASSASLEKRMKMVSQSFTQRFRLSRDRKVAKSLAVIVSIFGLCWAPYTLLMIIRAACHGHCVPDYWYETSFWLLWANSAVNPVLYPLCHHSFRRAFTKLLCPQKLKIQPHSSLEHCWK
Histamine H2 receptor, sequence (P25021 whole entry): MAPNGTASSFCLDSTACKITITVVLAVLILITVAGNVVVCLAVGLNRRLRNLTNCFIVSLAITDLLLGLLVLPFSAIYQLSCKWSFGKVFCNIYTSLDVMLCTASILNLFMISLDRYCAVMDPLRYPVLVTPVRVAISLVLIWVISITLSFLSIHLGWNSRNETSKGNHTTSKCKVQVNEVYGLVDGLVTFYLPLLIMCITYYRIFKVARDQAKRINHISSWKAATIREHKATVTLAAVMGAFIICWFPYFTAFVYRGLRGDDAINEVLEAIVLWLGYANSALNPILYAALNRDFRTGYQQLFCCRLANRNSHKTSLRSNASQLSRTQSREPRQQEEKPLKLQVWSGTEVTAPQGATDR
Histamine H1 receptor, sequence (P35367 whole entry): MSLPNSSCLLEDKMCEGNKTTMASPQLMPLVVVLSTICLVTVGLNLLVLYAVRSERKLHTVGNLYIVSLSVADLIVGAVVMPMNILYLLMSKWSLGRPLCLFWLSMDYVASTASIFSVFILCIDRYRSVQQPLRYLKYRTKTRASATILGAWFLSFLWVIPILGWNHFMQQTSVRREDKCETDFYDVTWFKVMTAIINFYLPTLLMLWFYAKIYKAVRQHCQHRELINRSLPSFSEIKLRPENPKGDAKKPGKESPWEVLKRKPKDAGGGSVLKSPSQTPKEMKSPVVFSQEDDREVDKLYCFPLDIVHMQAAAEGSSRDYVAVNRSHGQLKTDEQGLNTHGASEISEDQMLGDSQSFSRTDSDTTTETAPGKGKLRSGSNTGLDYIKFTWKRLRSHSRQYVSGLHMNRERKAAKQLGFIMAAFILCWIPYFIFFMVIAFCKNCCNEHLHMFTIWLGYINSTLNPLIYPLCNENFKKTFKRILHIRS

Row | EC50 (Histamine H3 receptor [1]) [nM] | Ki (Histamine H3 receptor [2]) [nM] | Ki (Histamine H1 receptor) [nM] | Structure (SMILES) | Ki (Histamine H2 receptor) [nM] | Ki (Histamine H4 receptor) [nM] | pD2 [3]
1 | 12.6 | – | – | c1nc(CCC2CCNCC2)c[nH]1 | – | – | –
2 | 3.98 | 15.8 | – | CCN1CCC(Cc2c[nH]cn2)CC1 | – | – | –
3 | 25.1 | 50.1 | – | CCN1CCC(=Cc2c[nH]cn2)CC1 | – | – | –
4 | 0.316 | 1 | > 10000 | CN1CCC(Cc2c[nH]cn2)CC1 [METHIMEPIP] | > 10000 | 2000 | 8.26
5 | 2.51 | 5.01 | – | CN1CCC(=Cc2c[nH]cn2)CC1 | – | – | –
6 | 50.1 | 31.6 | – | C(=C1CCN(C2CCCCC2)CC1)c1c[nH]cn1 | – | – | –
7 | 200 | 100 | – | CC(C)N1CCC(CCc2c[nH]cn2)CC1 | – | – | –
8 | 63.1 | 63.1 | – | CC(C)N1CCC(=Cc2c[nH]cn2)CC1 | – | – | –
9 | – | 6.31 | – | C(=C1CCNCC1)c1c[nH]cn1 | – | – | –
10 | 316 | 158 | – | c1nc(CCC2CCN(C3CCCCC3)CC2)c[nH]1 | – | – | –
11 | 7.94 | 63.1 | – | CC(C)N1CCC(Cc2c[nH]cn2)CC1 | – | – | –
12 | > 10000 | 63.1 | – | CCN1CCC(CCc2c[nH]cn2)CC1 | – | – | –
13 | 50.1 | 50.1 | – | CN1CCC(CCc2c[nH]cn2)CC1 | – | – | –
14 | 3.98 | 15.8 | – | c1nc(CC2CCN(C3CCCCC3)CC2)c[nH]1 | – | – | –

Row | Structure (SMILES) | EC50 (Histamine H3 receptor [1]) [nM] | Ki (Histamine H3 receptor [2]) [nM] | Ki (Histamine H1 receptor) [nM] | Ki (Histamine H2 receptor) [nM] | Ki (Histamine H4 receptor) [nM] | pD2 [3]
15 | C(=C1CCN(Cc2ccccc2)CC1)c1c[nH]cn1 | 79.4 | 398 | – | – | – | –
16 | c1nc(CC2CCNCC2)c[nH]1 [IMMEPIP] | – | 0.501 | – | > 10000 | 20 | 8.4
17 | c1ccc(CN2CCC(CCc3c[nH]cn3)CC2)cc1 | > 10000 | 79.4 | – | – | – | –
18 | c1ccc(CCN2CCC(Cc3c[nH]cn3)CC2)cc1 | 7.94 | 10 | – | – | – | –
19 | c1ccc(CCN2CCC(CCc3c[nH]cn3)CC2)cc1 | > 10000 | 39.8 | – | – | – | –
20 | c1ccc(CN2CCC(Cc3c[nH]cn3)CC2)cc1 | 15.8 | 50.1 | – | – | – | –
21 | C(=C1CCN(CCc2ccccc2)CC1)c1c[nH]cn1 | 15.8 | 63.1 | – | – | – | –
22 | c1ccc(CCCN2CCC(Cc3c[nH]cn3)CC2)cc1 | 31.6 | 39.8 | – | – | – | –
